According to PubChem BioAssay AID1919008 (Molecular Pharmacology Branch, DTP, NCI, 2023):
Values joined by “and” are separate entries in the source; they are usually repeats but may differ in a detail not shown here. Identical values can stand only once.

Test system: DMS-114 complex spheroids with HUVEC/MSC, growth % test/control
Assay: Anticancer human tumor DMS-114 cell line growth inhibition [AhR];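 note: spheroids exposed to agents for 7 days before readout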;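 for viability, T/C: 100% = DMSO vehicle control wells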
Settings: for viability, T/C: stronger effect = lower value
Method in brief: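 Complex tumor spheroids co-cultured with HUVEC and human MSC stroma; AhR antagonists tested in combination with standard-of-care and investigational agents. Top concentration at or near clinical Cmax (else 10 microM), half-log dilutions; growth expressed as percent test/control.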

[1] = curve of first compound, second compound 0.1 µM
[2] = curve of first compound, second compound 0.316 µM
[3] = curve of first compound, second compound 1 µM
[4] = curve of first compound, second compound 3.16 µM
[5] = curve of first compound, second compound 10 µM
[6] = second compound 0.1 µM, first compound 0.0316 µM
[7] = second compound 0.1 µM, first compound 0.1 µM
[8] = second compound 0.1 µM, first compound 0.316 µM
[9] = second compound 0.1 µM, first compound 1 µM
[10] = second compound 0.1 µM, first compound 3.16 µM
[11] = second compound 0.1 µM, first compound 10 µM
[12] = second compound 0.316 µM, first compound 0.0316 µM
[13] = second compound 0.316 µM, first compound 0.1 µM
[14] = second compound 0.316 µM, first compound 0.316 µM
[15] = second compound 0.316 µM, first compound 1 µM
[16] = second compound 0.316 µM, first compound 3.16 µM
[17] = second compound 0.316 µM, first compound 10 µM
[18] = second compound 1 µM, first compound 0.0316 µM
[19] = second compound 1 µM, first compound 0.1 µM
[20] = second compound 1 µM, first compound 0.316 µM
[21] = second compound 1 µM, first compound 1 µM
[22] = second compound 1 µM, first compound 3.16 µM
[23] = second compound 1 µM, first compound 10 µM
[24] = second compound 3.16 µM, first compound 0.0316 µM
[25] = second compound 3.16 µM, first compound 0.1 µM
[26] = second compound 3.16 µM, first compound 0.316 µM
[27] = second compound 3.16 µM, first compound 1 µM
[28] = second compound 3.16 µM, first compound 3.16 µM
[29] = second compound 3.16 µM, first compound 10 µM
[30] = second compound 10 µM, first compound 0.0316 µM
[31] = second compound 10 µM, first compound 0.1 µM
[32] = second compound 10 µM, first compound 0.316 µM
[33] = second compound 10 µM, first compound 1 µM
[34] = second compound 10 µM, first compound 3.16 µM
[35] = second compound 10 µM, first compound 10 µM
[36] = second compound 0.1 µM, first compound 0.00316 µM
[37] = second compound 0.1 µM, first compound 0.01 µM
[38] = second compound 0.316 µM, first compound 0.00316 µM
[39] = second compound 0.316 µM, first compound 0.01 µM
[40] = second compound 1 µM, first compound 0.00316 µM
[41] = second compound 1 µM, first compound 0.01 µM
[42] = second compound 3.16 µM, first compound 0.00316 µM
[43] = second compound 3.16 µM, first compound 0.01 µM
[44] = second compound 10 µM, first compound 0.00316 µM
[45] = second compound 10 µM, first compound 0.01 µM

| Compound | IC50 [1] | IC50 [2] | IC50 [3] | IC50 [4] | IC50 [5] | viability, T/C [6] | viability, T/C [7] | viability, T/C [8] | viability, T/C [9] | viability, T/C [12] | viability, T/C [13] | viability, T/C [14] | viability, T/C [15] | viability, T/C [18] | viability, T/C [19] | viability, T/C [20] | viability, T/C [24] | viability, T/C [25] | viability, T/C [30] | viability, T/C [31] | also measured |
| --- | --- | --- | --- | --- | --- | --- | --- | --- | --- | --- | --- | --- | --- | --- | --- | --- | --- | --- | --- | --- | --- |
| CC1(C)CCC(CN2CCN(c3ccc(C(=O)NS(=O)(=O)c4ccc(NCC5CCOCC5)c([N+](=O)[O-])c4)c(Oc4cnc5[nH]ccc5c4)c3)CC2)=C(c2ccc(Cl)cc2)C1 + Cc1ccccc1N=Nc1ccc(NC(=O)c2ccnn2C)c(C)c1 | > 10000 nM | > 10000 nM | > 10000 nM | > 10000 nM | > 10000 nM | 103% | 100% | 112% | 114% | 120% | 112% | 105% | 104% | 105% | 107% | 113% | 99.8% | 104% | 104% | 102% | viability, T/C [10]: 120%; viability, T/C [11]: 107%; viability, T/C [16]: 117%; viability, T/C [17]: 118%; viability, T/C [21]: 111%; viability, T/C [22]: 117%; viability, T/C [23]: 102%; viability, T/C [26]: 103%; viability, T/C [27]: 110%; viability, T/C [28]: 114%; viability, T/C [29]: 105%; viability, T/C [32]: 101%; viability, T/C [33]: 104%; viability, T/C [34]: 101%; viability, T/C [35]: 87.1% |
| O=C(c1cc(Cc2n[nH]c(=O)c3ccccc23)ccc1F)N1CCN(C(=O)C2CC2)CC1 |  |  |  |  |  |  |  |  |  |  |  |  |  |  |  |  |  |  |  |  | viability, T/C (compound 0.0316 µM): 106% and 111% and 105%; viability, T/C (compound 0.1 µM): 110% and 111% and 95.4%; viability, T/C (compound 0.316 µM): 97.3% and 106% and 87.7%; viability, T/C (compound 1 µM): 98% and 103% and 96.3%; viability, T/C (compound 3.16 µM): 82.4% and 108% and 76.7%; viability, T/C (compound 10 µM): 50.8% and 105% and 60.7%; IC50 (curve of compound): > 10000 nM |
| CC(C)c1c(-c2ccccc2)nc2c(C#N)c[nH]n2c1=O |  |  |  |  |  |  |  |  |  |  |  |  |  |  |  |  |  |  |  |  | viability, T/C (compound 0.0316 µM): 104% and 106% and 108%; viability, T/C (compound 0.1 µM): 117% and 104% and 101%; viability, T/C (compound 0.316 µM): 108% and 99.2% and 105%; viability, T/C (compound 1 µM): 105% (2×) and 96.3%; viability, T/C (compound 3.16 µM): 116% and 99.7% and 105%; viability, T/C (compound 10 µM): 111% and 102% (2×); IC50 (curve of compound): > 10000 nM |
| COc1cc(C2c3cc4c(cc3C(OC3OC5COC(C)OC5C(O)C3O)C3COC(=O)C23)OCO4)cc(OC)c1O (centres undefined) + CC(CO)NC(=O)c1cc(-c2ccc(Cl)cc2)nn(-c2cnn(C)c2)c1=O | 572 nM | 469 nM | 448 nM | 431 nM | 489 nM | 87.4% | 88.4% | 64.3% | 34.2% | 95.9% | 88.3% | 55% | 34.3% | 97.7% | 89.9% | 56.3% | 90.4% | 94.8% | 94.4% | 97.7% | viability, T/C [10]: 25.8%; viability, T/C [11]: 13.2%; viability, T/C [16]: 25.8%; viability, T/C [17]: 13.4%; viability, T/C [21]: 31.4%; viability, T/C [22]: 22.7%; viability, T/C [23]: 14%; viability, T/C [26]: 52.8%; viability, T/C [27]: 32.9%; viability, T/C [28]: 23.6%; viability, T/C [29]: 12%; viability, T/C [32]: 58%; viability, T/C [33]: 32.9%; viability, T/C [34]: 22.2%; viability, T/C [35]: 12.7% |
| Nc1ncn(C2CC(O)C(CO)O2)c(=O)n1 (centres undefined) + CC(CO)NC(=O)c1cc(-c2ccc(Cl)cc2)nn(-c2cnn(C)c2)c1=O | > 1000 nM | > 1000 nM | > 1000 nM | > 1000 nM | > 1000 nM | 97.8% | 96.5% | 85% | 61.6% | 93.9% | 80% | 79.8% | 59.8% | 90.3% | 93.8% | 83.3% | 80.1% | 94.5% | 93.4% | 98% | viability, T/C [36]: 102%; viability, T/C [37]: 95.6%; viability, T/C [38]: 122%; viability, T/C [39]: 101%; viability, T/C [40]: 91.3%; viability, T/C [41]: 105%; viability, T/C [21]: 72.3%; viability, T/C [42]: 109%; viability, T/C [43]: 104%; viability, T/C [26]: 85.1%; viability, T/C [27]: 70.7%; viability, T/C [44]: 101%; viability, T/C [45]: 99.7%; viability, T/C [32]: 91.8%; viability, T/C [33]: 76.5% |
| Nc1ccn(C2OC(CO)C(O)C2(F)F)c(=O)n1 (centres undefined) + Cc1ccccc1N=Nc1ccc(NC(=O)c2ccnn2C)c(C)c1 | < 31.6 nM | < 31.6 nM | < 31.6 nM | < 31.6 nM | < 31.6 nM | 21.8% | 23.8% | 25.1% | 23.9% | 25.6% | 28.2% | 26.3% | 23% | 25.5% | 24.6% | 26.5% | 25.4% | 27.7% | 29.2% | 32.7% | viability, T/C [10]: 25.7%; viability, T/C [11]: 25.5%; viability, T/C [16]: 23.2%; viability, T/C [17]: 24.2%; viability, T/C [21]: 23.7%; viability, T/C [22]: 26.4%; viability, T/C [23]: 25.7%; viability, T/C [26]: 28.3%; viability, T/C [27]: 24.9%; viability, T/C [28]: 26.8%; viability, T/C [29]: 28.5%; viability, T/C [32]: 29.4%; viability, T/C [33]: 31.7%; viability, T/C [34]: 31.7%; viability, T/C [35]: 30% |
| Cn1ncnc1C1c2n[nH]c(=O)c3cc(F)cc(c23)NC1c1ccc(F)cc1 (centres undefined) + CC(CO)NC(=O)c1cc(-c2ccc(Cl)cc2)nn(-c2cnn(C)c2)c1=O | > 100 nM | > 100 nM | > 100 nM | > 100 nM | > 100 nM | 97.2% | 82% |  |  | 82% | 84.1% |  |  | 84% | 101% |  | 94.8% | 85.7% | 78.1% | 72.2% | viability, T/C (second compound 0.1 µM, first compound 0.000316 µM): 103%; viability, T/C (second compound 0.1 µM, first compound 0.001 µM): 95%; viability, T/C [36]: 101%; viability, T/C [37]: 102%; viability, T/C (second compound 0.316 µM, first compound 0.000316 µM): 105%; viability, T/C (second compound 0.316 µM, first compound 0.001 µM): 95.5%; viability, T/C [38]: 103%; viability, T/C [39]: 84.7%; viability, T/C (second compound 1 µM, first compound 0.000316 µM): 103%; viability, T/C (second compound 1 µM, first compound 0.001 µM): 116%; viability, T/C [40]: 109%; viability, T/C [41]: 92.1%; viability, T/C (second compound 3.16 µM, first compound 0.000316 µM): 107%; viability, T/C (second compound 3.16 µM, first compound 0.001 µM): 105%; viability, T/C [42]: 109%; viability, T/C [43]: 96.4%; viability, T/C (second compound 10 µM, first compound 0.000316 µM): 94.3%; viability, T/C (second compound 10 µM, first compound 0.001 µM): 106%; viability, T/C [44]: 104%; viability, T/C [45]: 98.8% |
